Assay results reported in the NIST ThermoML archive (doi:10.1021/je800110r).
± gives the expanded uncertainty stated by the source.

Conditions: 303.16 K, Liquid, Vibrating tube method

CCCCCCCCCC [decane]
Conditions	mass density [kg/m3]
20929 kPa	738 ± 2
20946 kPa	738.2 ± 2
20968 kPa	738.1 ± 2
20994 kPa	738 ± 2
21014 kPa	738.1 ± 2
21034 kPa	738.1 ± 2
21060 kPa	738.2 ± 2
21084 kPa	738.1 ± 2
21107 kPa	738.2 ± 2
21124 kPa	738.2 ± 2
21151 kPa	738.1 ± 2
21174 kPa	738.2 ± 2
21191 kPa	738.2 ± 2
21209 kPa	738.2 ± 2
21226 kPa	738.3 ± 2
21243 kPa	738.2 ± 2
21267 kPa	738.4 ± 2
21293 kPa	738.3 ± 2
21314 kPa	738.3 ± 2
21341 kPa	738.3 ± 2
21358 kPa	738.4 ± 2
21382 kPa	738.3 ± 2
21403 kPa	738.3 ± 2
21424 kPa	738.5 ± 2
21448 kPa	738.4 ± 2
21469 kPa	738.5 ± 2
21490 kPa	738.4 ± 2
21514 kPa	738.4 ± 2
21538 kPa	738.4 ± 2
21560 kPa	738.6 ± 2
21579 kPa	738.5 ± 2
21600 kPa	738.5 ± 2
21622 kPa	738.5 ± 2
21641 kPa	738.5 ± 2
21662 kPa	738.6 ± 2
21686 kPa	738.6 ± 2
21708 kPa	738.7 ± 2
21730 kPa	738.6 ± 2
21745 kPa	738.7 ± 2
21779 kPa	738.7 ± 2
21805 kPa	738.6 ± 2
21827 kPa	738.7 ± 2
21847 kPa	738.7 ± 2
21869 kPa	738.6 ± 2
21891 kPa	738.7 ± 2
21916 kPa	738.7 ± 2
21938 kPa	738.8 ± 2
21962 kPa	738.8 ± 2
21987 kPa	738.7 ± 2
22006 kPa	738.8 ± 2
22029 kPa	738.9 ± 2
22057 kPa	738.8 ± 2
22086 kPa	738.8 ± 2
22108 kPa	738.7 ± 2
22127 kPa	738.9 ± 2
22153 kPa	738.8 ± 2
22178 kPa	738.9 ± 2
22201 kPa	738.8 ± 2
22224 kPa	739 ± 2
22246 kPa	738.9 ± 2
22269 kPa	738.9 ± 2
22291 kPa	739.1 ± 2
22314 kPa	739 ± 2
22333 kPa	738.9 ± 2
22360 kPa	739 ± 2
22380 kPa	739 ± 2
22410 kPa	739 ± 2
22436 kPa	739 ± 2
22463 kPa	739.1 ± 2
22489 kPa	739.1 ± 2
22516 kPa	739 ± 2
22542 kPa	739.1 ± 2
22565 kPa	739.1 ± 2
22589 kPa	739.2 ± 2
22619 kPa	739.2 ± 2
22647 kPa	739.2 ± 2
22666 kPa	739.2 ± 2
22696 kPa	739.3 ± 2
22723 kPa	739.2 ± 2
22750 kPa	739.3 ± 2
22773 kPa	739.3 ± 2
22801 kPa	739.4 ± 2
22825 kPa	739.3 ± 2
22846 kPa	739.3 ± 2
22870 kPa	739.4 ± 2
22897 kPa	739.3 ± 2
22918 kPa	739.3 ± 2
22950 kPa	739.5 ± 2
22971 kPa	739.4 ± 2
22996 kPa	739.5 ± 2
23013 kPa	739.5 ± 2
23041 kPa	739.4 ± 2
23062 kPa	739.5 ± 2
23097 kPa	739.5 ± 2
23124 kPa	739.5 ± 2
23149 kPa	739.6 ± 2
23174 kPa	739.6 ± 2
23202 kPa	739.6 ± 2
23224 kPa	739.6 ± 2
23257 kPa	739.7 ± 2
23285 kPa	739.6 ± 2
23310 kPa	739.6 ± 2
23339 kPa	739.7 ± 2
23360 kPa	739.7 ± 2
23385 kPa	739.6 ± 2
23411 kPa	739.7 ± 2
23437 kPa	739.8 ± 2
23466 kPa	739.7 ± 2
23495 kPa	739.8 ± 2
23526 kPa	739.7 ± 2
23549 kPa	739.7 ± 2
23575 kPa	739.9 ± 2
23600 kPa	739.8 ± 2
23630 kPa	739.9 ± 2
23652 kPa	739.9 ± 2
23682 kPa	739.9 ± 2
23705 kPa	739.9 ± 2
23735 kPa	739.9 ± 2
23761 kPa	740 ± 2
23784 kPa	739.9 ± 2
23813 kPa	739.9 ± 2
23845 kPa	740.1 ± 2
23872 kPa	740 ± 2
23902 kPa	740.1 ± 2
23933 kPa	740.1 ± 2
23968 kPa	740.1 ± 2
23991 kPa	740.1 ± 2
24021 kPa	740.2 ± 2
24048 kPa	740.2 ± 2
24083 kPa	740.1 ± 2
24102 kPa	740.1 ± 2
24133 kPa	740.2 ± 2
24165 kPa	740.2 ± 2
24200 kPa	740.3 ± 2
24235 kPa	740.3 ± 2
24255 kPa	740.2 ± 2
24282 kPa	740.4 ± 2
